{
  "source": "patent US6800470B2",
  "about": "“Mammalian sphingosine kinase type 2 isoforms, cloning, expression and methods of use thereof” (Sankyo Company, Ltd., priority 2000, dated 2004)",
  "key": {"[1]": {"biological_target": "T1, mSPHK2 (Mus musculus, UniProt Q9JIA7)", "T1 construct": "The open reading frames of mSPHK2 and hSPHK2 encode polypeptides of 617 and 618 amino acids, respectively; made in house; host or cells: HEK293 (ATCC CRL-1573), transient transfection; unpurified cytosol or whole lysate", "T1 sequence (Q9JIA7 1-617)": "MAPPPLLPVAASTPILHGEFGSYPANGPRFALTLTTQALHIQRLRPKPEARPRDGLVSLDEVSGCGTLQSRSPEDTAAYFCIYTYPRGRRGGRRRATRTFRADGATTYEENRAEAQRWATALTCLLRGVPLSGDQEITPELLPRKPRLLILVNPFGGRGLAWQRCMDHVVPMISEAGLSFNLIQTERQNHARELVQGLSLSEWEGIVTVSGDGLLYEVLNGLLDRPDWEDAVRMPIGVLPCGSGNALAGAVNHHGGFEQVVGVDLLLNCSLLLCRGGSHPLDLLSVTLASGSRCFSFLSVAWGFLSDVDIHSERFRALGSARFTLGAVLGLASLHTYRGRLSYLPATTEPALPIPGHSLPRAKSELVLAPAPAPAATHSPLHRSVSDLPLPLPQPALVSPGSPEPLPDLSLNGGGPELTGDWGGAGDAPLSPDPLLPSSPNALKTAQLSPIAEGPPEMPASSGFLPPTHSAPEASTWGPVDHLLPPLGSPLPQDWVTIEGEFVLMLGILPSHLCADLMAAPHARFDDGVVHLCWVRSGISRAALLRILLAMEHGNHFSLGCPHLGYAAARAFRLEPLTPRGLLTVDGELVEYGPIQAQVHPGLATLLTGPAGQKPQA", "assay": "SPHK activity assay with recombinant mSPHK2 (cytosol/lysates of transfected HEK293 cells, [g-32P]ATP, TLC)", "assay_type": "biochemical", "details": "for SPHK-dependent phosphorylation by SPHK2 (substrate specificity): lipids 50 mM as printed, cytosol of HEK293 cells transfected with mSPHK2, compared with D-erythro-sphingosine; for salt concentration with maximal stimulation of SPHK2 activity: increasing salt concentration, FIG. 5C", "description": "Lanes: 1, D-erythro-sphingosine (“D-erythro-Sph”); 2, D-erythro-dihydrosphingosine (“D-erythro-DHS”); 3, D, L-threo-DHS; 4, N,N-dimethylsphingosine (“DMS”); 5, C2-ceramide; 6, C16-ceramide; 7, diacylglycerol; 8, phosphatidylinositol; 9, phytosphingosine. Data are expressed as percentage of phosphorylation of D-erythro-Sph.\nSPHK activity in HEK293 cell lysates after transfection as in FIG. 4A was measured with 10 μM D-erythro-sphingosine in the presence of increasing concentrations of DMS.\nSPHK activity was measured with varying concentrations of D-erythro-sphingosine in the absence (open circles) or presence of 10 μM (filled squares) or 20 μM DMS (filled triangles).\nFIG. 4D are Lineweaver-Burk plots.\n(§1) In FIGS. 5B and 5C, the SPHK activity in HEK293 cell lysates was measured 24 hours after transfection with mSPHK1 (FIG. 5B) or mSPHK2 (FIG. 5C) in the absence or presence of increasing concentrations of NaCl (open squares) or KCl (filled circles).\nFIG. 5E are Lineweaver-Burk plots of data from FIG. 5D.\n(§2) HEK293 cells were transfected with mSPHK1a (open circles) or mSPHK2 (filled circles) and the activities of each in cell lysates were measured after 24 hours in the presence of the indicated concentrations of Triton X-100 (FIG. 6A) or BSA (FIG. 6B).\n(§3) HEK293 cells were transfected with mSPHK1a (circles) or mSPHK2 (triangles) and the activities of each in cell lysates were measured after 24 hours in the presence of the indicated concentrations of phosphatidylserine (filled symbols) or phosphatidylcholine (open symbols). Data are expressed as percentage of control activity measured without any additions.\n(§4) Human embryonic kidney cells (HEK293, ATCC CRL-1573) and NIH 3T3 fibroblasts (ATCC CRL-1658) were cultured as described in Olivera, A., Kohama, T., Edsall, L. C., Nava, V., Cuvillier, O., Poulton, S., and Spiegel, S., J. Cell Biol., 147 (1999) 545-558. HEK293 cells were seeded at 6×10^5 per well in poly-L-lysine coated 6 well plates. After 24 hours, cells were transfected with 1 μg of vector alone or with vectors containing sphingosine kinase constructs and 6 μl of “Lipofectamine PLUS” reagent plus 4 μl of “Lipofectamine” reagent per well. One to three days after transfection, cells were harvested and lysed by freeze-thawing as described in Kohama, T., Olivera, A., Edsall, L., Nagiec, M. M., Dickson, R., and Spiegel, S., J. Biol. Chem., 273, (1998), 23722-23728. In some experiments, cell lysates were fractionated into cytosol and membrane fractions by centrifugation at 100,000×g for 60 minutes. SPHK activity was determined in the presence of sphingosine, prepared as a complex with 4 mg/ml BSA, and [g-32P] ATP in kinase buffer (Olivera, A. and Spiegel, S. in Methods in Molecular Biology, (Bird, I. M. ed.), (1998), Vol. 105, 233-242, Humana Press, Inc., Totowa, N.J.), containing 200 mM KCl, unless indicated otherwise. 32P-SPP was separated by TLC and quantified with a phosphoimager as previously described."}, "[2]": {"biological_target": "T2, mSPHK1a (Mus musculus, UniProt Q8CI15)", "T2 construct": "made in house; host or cells: HEK293 (ATCC CRL-1573), transient transfection; unpurified cell lysate", "T2 sequence (Q8CI15 1-381 isoform Q8CI15-3)": "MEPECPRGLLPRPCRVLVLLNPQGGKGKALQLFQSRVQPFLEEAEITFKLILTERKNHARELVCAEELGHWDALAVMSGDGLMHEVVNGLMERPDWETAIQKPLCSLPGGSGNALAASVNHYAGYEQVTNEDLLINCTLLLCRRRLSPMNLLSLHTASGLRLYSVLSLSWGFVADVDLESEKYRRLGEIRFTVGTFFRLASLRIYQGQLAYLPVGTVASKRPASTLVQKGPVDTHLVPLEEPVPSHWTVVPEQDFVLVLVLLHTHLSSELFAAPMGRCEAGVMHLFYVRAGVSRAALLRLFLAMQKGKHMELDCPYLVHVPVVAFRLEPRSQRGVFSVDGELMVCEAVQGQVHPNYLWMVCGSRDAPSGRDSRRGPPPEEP", "details": "cited from earlier work; for inhibition of SPHK1: previously shown (Edsall et al. 1998)"}, "[3]": {"biological_target": "T2, mSPHK1a", "assay": "SPHK activity assay with recombinant mSPHK1a (lysates of transfected HEK293 cells)", "assay_type": "biochemical", "details": "for inhibition of SPHK1 activity: salt concentration 200 mM", "description": "as §1, §2, §3, §4"}, "[4]": {"system": "HEK293 cells", "assay": "SPHK activity in HEK293 cells transiently transfected with SPHK expression vectors (cytosol and particulate fractions)", "assay_type": "cell-based, human", "details": "24 hours after transfection of HEK293 cells", "description": "In FIG. 3A, HEK 293 cells were transiently transfected with an empty vector or with mSPHK2 or hSPHK2 expression vectors. After 24 hours, SPHK activity was measured in cytosol (open bars) and particulate fractions (filled bars). The data are means±S.D. Parental and vector-transfected cells had basal SPHK activities of 26 and 37 pmol/min/mg, respectively.\nas §4"}},
  "note": "Entries after “also recorded” stand apart in the source; their conditions may differ.",
  "data": [
    {"compound": "CCCCCCCCCCCCC/C=C/[C@@H](O)[C@H](CO)NC(C)=O", "note": "[C2-ceramide]", "values": [
      {"measurement": "SPHK-dependent phosphorylation by SPHK2 (substrate specificity)", "setting": "[1]", "result": "not phosphorylated"}
    ]},
    {"compound": "CCCCCCCCCCCCC/C=C/[C@@H](O)[C@@H](N)CO", "note": "[D-erythro-sphingosine]", "values": [
      {"measurement": "phosphorylation by SPHK1 (substrate rank)", "setting": "[2]; Kohama et al. 1998", "result": "best substrate"}
    ]},
    {"compound": "phosphatidylinositol", "values": [
      {"measurement": "SPHK-dependent phosphorylation by SPHK2 (substrate specificity)", "setting": "[1]", "result": "not phosphorylated"}
    ]},
    {"compound": "[Cl-].[Na+]", "note": "[NaCl]", "values": [
      {"measurement": "effect on SPHK2 activity", "setting": "[1]; in words", "result": "dramatically stimulated; also recorded: markedly stimulated"},
      {"measurement": "salt concentration with maximal stimulation of SPHK2 activity", "setting": "[1]", "result": 400, "unit": "mM"},
      {"measurement": "inhibition of SPHK1 activity", "setting": "[3]", "result": 50, "unit": "%"}
    ]},
    {"compound": "mSPHK1: first cloned mammalian (murine) sphingosine kinase, type 1", "values": [
      {"measurement": "increase of in vitro SPHK activity over basal levels", "setting": "[4]", "result": 610, "unit": "fold"}
    ]},
    {"compound": "CCCCCCCCCCCCCCC[C@@H](O)[C@@H](N)CO", "note": "[DHS, dihydrosphingosine]", "values": [
      {"measurement": "SPHK-dependent phosphorylation by SPHK2 (substrate specificity)", "setting": "[1]", "result": "even better substrate than D-erythro-sphingosine"},
      {"measurement": "inhibition of SPHK1", "setting": "[2]", "result": "potent competitive inhibitors; also recorded: potent inhibitor"}
    ]},
    {"compound": "N,N-dimethylsphingosine [DMS]", "values": [
      {"measurement": "inhibition of SPHK2", "setting": "[1]; 10 μM D-erythro-sphingosine, increasing concentrations of DMS (FIG. 4B)", "result": "potent inhibitor"},
      {"measurement": "manner of inhibition of SPHK2", "setting": "[1]; kinetic analysis, FIG. 4C and 4D", "result": "non-competitive"},
      {"measurement": "SPHK-dependent phosphorylation by SPHK2 (substrate specificity)", "setting": "[1]", "result": "not phosphorylated"},
      {"measurement": "Ki", "setting": "[1]; recombinant mSPHK2, HEK293 cell lysates, varying D-erythro-sphingosine, 10 or 20 μM DMS, Lineweaver-Burk, read-out: Ki for DMS with SPHK2", "result": 12, "unit": "µM"},
      {"measurement": "inhibition of SPHK1", "setting": "[2]", "result": "potent competitive inhibitors; also recorded: competitive inhibitor"}
    ]},
    {"compound": "phosphatidylserine", "values": [
      {"measurement": "effect on SPHK2 activity", "setting": "[1]; in words", "result": "stimulated"},
      {"measurement": "maximal increase of SPHK2 activity", "setting": "[1]; phosphatidylserine 40 μg/ml", "result": 4, "unit": "fold"},
      {"measurement": "effect on SPHK1 activity", "setting": "[3]; in words", "result": "stimulated"},
      {"measurement": "maximal increase of SPHK1 activity", "setting": "[3]; phosphatidylserine 40 μg/ml", "result": 4, "unit": "fold"}
    ]},
    {"compound": "CCCCCCCCCCCCCC[C@@H](O)[C@@H](O)[C@@H](N)CO", "note": "[phytosphingosine]", "values": [
      {"measurement": "SPHK-dependent phosphorylation by SPHK2 (substrate specificity)", "setting": "[1]", "result": "significantly phosphorylated; also recorded: to a lesser extent"},
      {"measurement": "phosphorylation by SPHK1", "setting": "[3]", "result": "not phosphorylated at all"}
    ]},
    {"compound": "CCCCCCCCCCCCCCC[C@@H](O)[C@@H](N)CO", "note": "[D-erythro-dihydrosphingosine]", "values": [
      {"measurement": "SPHK-dependent phosphorylation by SPHK2 (substrate specificity)", "setting": "[1]", "result": "better substrate for SPHK2 than D-erythro-sphingosine"}
    ]},
    {"compound": "CCCCCCCCCCCCC/C=C/[C@@H](O)[C@H](CO)NC(=O)CCCCCCCCCCCCCCC", "note": "[C16-ceramide]", "values": [
      {"measurement": "SPHK-dependent phosphorylation by SPHK2 (substrate specificity)", "setting": "[1]", "result": "not phosphorylated"}
    ]},
    {"compound": "diacylglycerol", "values": [
      {"measurement": "SPHK-dependent phosphorylation by SPHK2 (substrate specificity)", "setting": "[1]", "result": "not phosphorylated"}
    ]},
    {"compound": "CCCCCCCCCCCCCCC[C@H](O)[C@@H](N)CO", "note": "[D,L-threo-dihydrosphingosine]", "values": [
      {"measurement": "SPHK-dependent phosphorylation by SPHK2 (substrate specificity)", "setting": "[1]", "result": "significantly phosphorylated"},
      {"measurement": "SPHK-dependent phosphorylation by SPHK2 (substrate specificity)", "setting": "[1]; listed as D, L-threo-dihydrosphingosine", "result": "to a lesser extent"},
      {"measurement": "phosphorylation by SPHK1", "setting": "[3]", "result": "not phosphorylated at all"}
    ]},
    {"compound": "phosphatidylcholine [phosphatidyicholine]", "values": [
      {"measurement": "effect on SPHK2 activity", "setting": "[1]; in words", "result": "no effect"},
      {"measurement": "effect on SPHK1 activity", "setting": "[3]; in words", "result": "no effect"}
    ]},
    {"compound": "[Cl-].[K+]", "note": "[KCl]", "values": [
      {"measurement": "Km value of mSPHK2 for sphingosine in the presence of KCl", "setting": "[1]; 50 or 200 mM KCl", "result": "not affected"},
      {"measurement": "Vmax of mSPHK2", "setting": "[1]; in the presence of 50 mM KCl", "result": 0.3, "unit": "nmol/min/mg"},
      {"measurement": "Vmax of mSPHK2", "setting": "[1]; in the presence of 200 mM KCl", "result": 1, "unit": "nmol/min/mg"},
      {"measurement": "effect on SPHK2 activity", "setting": "[1]; in words", "result": "dramatically stimulated; also recorded: markedly stimulated"},
      {"measurement": "salt concentration with maximal stimulation of SPHK2 activity", "setting": "[1]", "result": 400, "unit": "mM"},
      {"measurement": "inhibition of SPHK1 activity", "setting": "[3]", "result": 50, "unit": "%"}
    ]},
    {"compound": "Triton X-100", "values": [
      {"measurement": "effect on SPHK2 activity", "setting": "[1]; Triton X-100 0.5%", "result": "almost completely inhibited"},
      {"measurement": "effect on SPHK2 activity", "setting": "[1]; detergent below 0.005%", "result": "no effect"},
      {"measurement": "effect on SPHK2 activity", "setting": "[1]; in words", "result": "inhibited"},
      {"measurement": "increase of SPHK1 activity", "setting": "[3]; Triton X-100 0.5%", "result": "more than 4 fold"},
      {"measurement": "effect on SPHK1 activity", "setting": "[3]; detergent below 0.005%", "result": "no effect"},
      {"measurement": "effect on SPHK1 activity", "setting": "[3]; in words", "result": "markedly increased"}
    ]}
  ]
}
